Data published in patent publication US6537783B1, “Prefunctionalized nucleotide and process for amplifying a sequence using a prefunctionalized nucleotide” (Bio Merieux, priority 1996, dated 2003).

Key:
[1] = test system: Mycobacterium tuberculosis 16S RNA; assay: Incorporation yield of the nucleotide in the TMA amplification products (HPLC of digested amplicons; fluorescence for fluorescein-UTP); assay type: biochemical; conditions: 10^6 copies target, total 4 mM
Method: The incorporation of the prefunctionalized nucleotides 27a, 27b and 32, and, by way of comparison, Boerhinger's labeled nucleotide ref. 1 427 857, into the products of the TMA amplification reaction is tested using Gen-Probe amplified™ MTD2 (amplified Mycobacterium tuberculosis direct test) kits. This reaction amplifies a 136-base fragment of the mycobacterial 16S RNA. It uses four enzymic activities (DNA-dependent RNA polymerase, DNA-dependent DNA polymerase, RNA-dependent DNA polymerase and ribonuclease H) and two enzymes, T7 RNA polymerase and AMV reverse transcriptase. By means of recurrent reactions involving steps of transcription, reverse transcription and digestion of the RNA contained in the DNA:RNA double strands, which steps resemble an RNA virus replication cycle, this reaction enables a nucleic acid sequence which is recognized by two primers (a simple primer and a primer containing the T7 RNA polymerase promoter) to be amplified specifically. The amplification factor is very substantial ([…]) and the sensitivity is very good (from 1 to 10 copies). 90% of the resulting products consist of single-stranded RNAs and 10% consist of double-stranded DNAs.
Amplification reactions are carried out using 10^6 copies of Mycobacterium tuberculosis 16S RNA. This target RNA is previously obtained and quantified by means of the following method: the 16S RNA gene is cloned into a plasmid under the control of a promoter. The 16S RNA is then obtained by in vitro transcription. This RNA is purified by extraction with phenol/chloroform and filtration through microcon 30™ (Amicon). It is assayed by its absorption at 260 nm.
The standard TMA reactions contain 4 mM of each of the natural rNTPs (ATP, CTP, GTP and UTP). For the purpose of incorporating the prefunctionalized nucleotides into the amplification products, the reaction is performed while including one of these modified nucleotides in the reaction buffer. The reaction is studied in the presence of different ratios between the concentrations of the modified nucleotide and the natural nucleotide, while at the same time ensuring that the total concentration of each nucleotide of the same series, whether modified or natural, is 4 mM. The ratios studied are 0%, 10%, 30%, 50% and 70% (except in the case of the fluorescein-UTP, which it was not possible to test at 70%). A negative control is carried out, with this negative control consisting of a reaction which comprises all the reagents, including the highest ratio of modified nucleotides employed (70 or 50%), apart from the enzymes (which are replaced by the buffer used for redissolving the lyophilized enzymes).
The ratio between the incorporated prefunctionalized nucleotide and the analogous natural nucleotide is determined in order to assess the prefunctionalization of the amplicons obtained in the presence of the prefunctionalized nucleotides 27a (CTP-(N4)-C6O2—NH2) and 27b (CTP-(N4)-C4—NH2) and, by way of comparison, in the presence of the labeled nucleotide fluorescein-12-UTP (Boerhinger, ref. 1 427 857).
The amplification products obtained on carrying out Example 22 are separated from the nucleotides which are in excess in the reaction by means of filtration through Microcon 30™ (from Amicon) and dissolved in 50 μl of water. In the case of the amplification in the presence of fluorescein-12-UTP, the purification is carried out on sephadex G50 (the fluorescein is absorbed on Microcon).
The absorption of the amplification products at 260 nm is then determined (the control without enzyme should have a very low concentration).
In the case of the amplification reactions which include the prefunctionalized nucleotides (and their controls), a step of digesting the nucleic acids down to the nucleoside stage is then carried out:
5 10^14 amplification product copies (approximately 35 μg) are diluted in a final volume of 86 μl of water (in the case of the control without enzyme, a volume is used which is equal to the largest sample […] volume). […]

[2] = test system: Mycobacterium tuberculosis 16S RNA; assay: Impact of incorporation of prefunctionalized nucleotides on TMA sensitivity (ELOSA, electrophoresis, Northern blotting); assay type: biochemical; conditions: for sensitivity of the TMA reaction: 10,000 to 10 target copies, ratios 100% to 0%, at a determinable concentration of prefunctionalized nucleotide
From the text: In the abovementioned FIGS. 4 and 5, the number of copies of the target per reaction are given on the x axis and the number of amplicons obtained per microliter of reaction (final reaction volume=100 microliters) are given on the y axis. Specific symbols, for example ▪, □, ▴, ◯, ●, and a percentage, are assigned to the curves in FIGS. 4 and 5. This percentage corresponds to the percentage of the prefunctionalized nucleotide(s) as compared with the natural nucleotides in the TMA amplification reaction. FIGS. 4 and 5 show, respectively, the results of the semiquantification, by means of the ELOSA technique (described in Patent Application PCT WO 92/19812), of the number of amplicons produced from a target range of Mycobacterium tuberculosis 16S RNA in the presence of different ratios of 27a and 27b nucleotides as compared with their respective natural nucleotides.
In order to study the sensitivity of TMA which includes incorporation of prefunctionalized nucleotides, the TMA was performed using decreasing quantities of the target (Mycobacterium tuberculosis 16S RNA, described in Example 22) (10,000, 1000, 100, 10 and 0 copies) in the presence of different ratios between the prefunctionalized nucleotide and its natural analog (100%, 70%, 50%, 30%, 10% and 0%). The same prefunctionalized nucleotides are tested, i.e. 27a (CTP-(N4)-C6O2—NH2) and 27b (CTP-(N4)-C4—NH2).
The reaction products are studied, inter alia, by the method described in Example 22.
The reaction products are also analyzed in a semi-quantitative manner by means of ELOSA (PCT WO 92/19812) and comparison of the intensity of the signals with those of standard ranges.
The reactions which are performed in the presence of (a) prefunctionalized nucleotide(s) are analyzed by electrophoresis and staining, Northern blotting and ELOSA.

[3] = [Prefunctionalized nucl.]/[natural nucl.] in reaction 10%
[4] = [Prefunctionalized nucl.]/[natural nucl.] in reaction 30%
[5] = [Prefunctionalized nucl.]/[natural nucl.] in reaction 50%
[6] = [Prefunctionalized nucl.]/[natural nucl.] in reaction 70%

CTP-(N4)-C6O2—NH2 [nucleotide 27a]
incorporation yield: incorporated modified nucleotide / natural nucleotide in TMA amplification products [1, 3]: 1/33 | incorporation yield: incorporated modified nucleotide / natural nucleotide in TMA amplification products [1, 4]: 1/9 | incorporation yield: incorporated modified nucleotide / natural nucleotide in TMA amplification products [1, 5]: 1/5 | incorporation yield: incorporated modified nucleotide / natural nucleotide in TMA amplification products [1, 6]: 1/3 | sensitivity of the TMA reaction [2]: not significantly affected

fluorescein-12-UTP [reference compound]
incorporation yield: incorporated modified nucleotide / natural nucleotide in TMA amplification products [1, 3]: 1/200 | incorporation yield: incorporated modified nucleotide / natural nucleotide in TMA amplification products [1, 4]: 1/45 | incorporation yield: incorporated modified nucleotide / natural nucleotide in TMA amplification products [1, 5]: 1/30

CTP-(N4)-C4—NH2 [nucleotide 27b]
incorporation yield: incorporated modified nucleotide / natural nucleotide in TMA amplification products [1, 4]: 1/48 | incorporation yield: incorporated modified nucleotide / natural nucleotide in TMA amplification products [1, 5]: 1/15 | incorporation yield: incorporated modified nucleotide / natural nucleotide in TMA amplification products [1, 6]: 1/6 | sensitivity of the TMA reaction [2]: not significantly affected | ability to replace the natural nucleotide in TMA ([2]; FIG. 5, ELOSA): able to replace the natural nucleotide
